A short description of one data set: Solubility. The format is physicochemical. The settings on record: compound A and its salts.
A short description of data set [1]: Particle size of the raw material by Malvern laser particle size analyzer (Mastersizer 2000). The format is physicochemical. The following applies: for Particle size d (0.5) of the raw material / Particle size d (0.9) of the raw material: in µm (unit assumed). On the procedure: 2-((2-Fluoro-4-iodophenyl)amino)-1-methyl-4-((6-methylpyridin-3-yl)oxy)-6-oxo-1,6-dihydropyridine-3-carboxamide p-toluenesulfonate (hereinafter referred to as compound A) was screened by an 80 mesh sieve, and micronized by a Mcone jet mill (micronizing pressure: 4 bar, sample introduction pressure: 6 bar), respectively. The particle size was measured directly with a Malvern laser particle size analyzer (Mastersizer 2000).

Setting [2] is: raw material micronized by a jet mill (4 bar).
Setting [3] is: raw material screened by an 80 mesh sieve.

Consider 1 compound from US10709699B2, “Pyridone derivative pharmaceutical composition and preparation method thereof” (Jiangsu Hengrui Medicine Co., Ltd., priority 2016, dated 2020).

For the compound `Cc1ccc(Oc2cc(=O)n(C)c(Nc3ccc(I)cc3F)c2C(N)=O)cn1.Cc1ccc(S(=O)(=O)O)cc1` [compound A, 2-((2-fluoro-4-iodophenyl)amino)-1-methyl-4-((6-methylpyridin-3-yl)oxy)-6-oxo-1,6-di hydropyridine-3-carboxamide p-toluenesulfonate], the solubility entry in the data set “Solubility” was “low”. Further, the “particle size of the raw material” value in data set [1] (raw material micronized by a jet mill) was “less than 10 μm”. For the same compound, in data set [1] (setting [2]), the “Particle size d (0.5) of the raw material” value is 2.587 and the “Particle size d (0.9) of the raw material” value came to 5.494. Besides, in data set [1] (setting [3]), the “Particle size d (0.5) of the raw material” value is reported as 4.940 and the “Particle size d (0.9) of the raw material” value is on record as 14.148.
